Laboratory results published in ChEMBL document CHEMBL5325462, “Regioselective synthesis and in vitro cytotoxicity evaluation of 3-thiooxindole derivatives: Tubulin polymerization inhibition and apoptosis inducing studies” (Bioorg Med Chem, 2023).
The source made the active and inactive calls. No cut-off for these calls is given here.

Columns and labels:
[1] = test system: HCT-116; test: Induction of nuclear morphological changes in human HCT-116 cells assessed as change in nuclear condensation measured after 48 hrs by DAPI-staining based fluorescence microscopic analysis; type: functional, cell-based
[2] = test system: MCF7; test: Cytotoxicity against human MCF7 cells assessed as inhibition of cell growth measured after 72 hrs by MTT assay; type: functional, cell-based; conditions: MCF7, 72 h
[3] = test system: HCT-116; test: Induction of nuclear morphological changes in human HCT-116 cells assessed as change in nuclear shape measured after 48 hrs by DAPI-staining based fluorescence microscopic analysis; type: functional, cell-based
[4] = test system: HCT-116; test: Induction of apoptosis in human HCT-116 cells assessed as necrotic cells at 6.64 uM incubated for 24 hrs by Annexin V-FITC/PI staining based flow cytometry analysis (Rvb= 0.0%); type: functional
[5] = Cytotoxicity against rat NRK cells assessed as inhibition of cell growth measured after 72 hrs by MTT assay; type: toxicity, cell-based
[6] = test system: Cell membrane; test: Induction of mitochondrial membrane potential loss in human HCT-116 cells assessed as polarized cells at 13.28 uM incubated for 72 hrs by JC-1 staining based flow cytometry analysis (reference value: 99.6 %); type: subcellular
[7] = test system: HCT-116; test: Induction of morphological changes in human HCT-116 cells assessed as cell nucleus shrinkage at 3.32 to 13.28 uM measured after 48 hrs by phase contrast microscope; type: functional, cell-based; conditions: dose 3.32-13.28 µM
[8] = test system: Cell membrane; test: Induction of mitochondrial membrane potential loss in human HCT-116 cells assessed as depolarized cells at 13.28 uM incubated for 72 hrs by JC-1 staining based flow cytometry analysis (reference value: 0.4 %); type: subcellular
[9] = test system: HCT-116; test: Cell cycle arrest in human HCT-116 cells assessed as accumulation of cells in G2/M phase at 3.32 uM measured after 48 hrs by PI staining based flow cytometry method (reference value: 6.7%); type: functional
[10] = test system: HCT-116; test: Induction of apoptosis in human HCT-116 cells assessed as early apoptotic cells at 3.32 uM incubated for 24 hrs by Annexin V-FITC/PI staining based flow cytometry analysis (Rvb= 0.2%); type: functional
[11] = test system: HCT-116; test: Inhibition of colony formation in human HCT-116 cells at 3.32 to 13.28 uM measured after 14 days; type: functional, cell-based; conditions: dose 3.32-13.28 µM, time 14.0 day
[12] = test system: HCT-116; test: Cell cycle arrest in human HCT-116 cells assessed as accumulation of cells in S phase at 6.64 uM measured after 48 hrs by PI staining based flow cytometry method (reference value: 8.8%); type: functional
[13] = test system: BT-474; test: Cytotoxicity against human BT-474 cells assessed as inhibition of cell growth measured after 72 hrs by MTT assay; type: functional, cell-based; conditions: BT-474, 72 h
[14] = test system: A549; test: Cytotoxicity against human A549 cells assessed as inhibition of cell growth measured after 72 hrs by MTT assay; type: functional, cell-based; conditions: A549, 72 h
[15] = test system: HCT-116; test: Cell cycle arrest in human HCT-116 cells assessed as accumulation of cells in G0/G1 phase at 13.28 uM measured after 48 hrs by PI staining based flow cytometry method (reference value: 79%); type: functional
[16] = test system: Cell membrane; test: Induction of mitochondrial membrane potential loss in human HCT-116 cells assessed as polarized cells at 6.64 uM incubated for 72 hrs by JC-1 staining based flow cytometry analysis (reference value: 99.6 %); type: subcellular
[17] = test system: HCT-116; test: Induction of morphological changes in human HCT-116 cells assessed as formation of apoptotic bodies incubated for 24 hrs by acridine orange/ethidium bromide staining based fluorescence microscopic analysis; type: functional, cell-based
[18] = test system: HCT-116; test: Cell cycle arrest in human HCT-116 cells assessed as accumulation of cells in G2/M phase at 6.64 uM measured after 48 hrs by PI staining based flow cytometry method (reference value: 6.7%); type: functional
[19] = test system: HCT-116; test: Induction of morphological changes in human HCT-116 cells assessed as formation of necrotic bodies incubated for 24 hrs by acridine orange/ethidium bromide staining based fluorescence microscopic analysis; type: functional, cell-based
[20] = test system: HCT-116; test: Cytotoxicity against human HCT-116 cells assessed as inhibition of cell growth measured after 72 hrs by MTT assay; type: functional, cell-based; conditions: HCT-116, 72 h
[21] = test system: HCT-116; test: Cell cycle arrest in human HCT-116 cells assessed as accumulation of cells in sub-G1 phase at 6.64 uM measured after 48 hrs by PI staining based flow cytometry method (reference value: 4.6%); type: functional
[22] = test system: HCT-116; test: Inhibition of cell invasion in human HCT-116 cells at 3.32 to 13.28 uM measured after 48 hrs by phase contrast microscopic analysis; type: functional, cell-based; conditions: dose 3.32-13.28 µM
[23] = test system: HCT-116; test: Induction of apoptosis in human HCT-116 cells assessed as necrotic cells at 13.28 uM incubated for 24 hrs by Annexin V-FITC/PI staining based flow cytometry analysis (Rvb= 0.0%); type: functional
[24] = test system: HCT-116; test: Induction of apoptosis in human HCT-116 cells assessed as late apoptotic cells at 3.32 uM incubated for 24 hrs by Annexin V-FITC/PI staining based flow cytometry analysis (Rvb= 0.1%); type: functional
[25] = test system: HCT-116; test: Induction of apoptosis in human HCT-116 cells assessed as viable cells at 6.64 uM incubated for 24 hrs by Annexin V-FITC/PI staining based flow cytometry analysis (Rvb= 99.7%); type: functional; conditions: read-out: Activity
[26] = test system: HCT-116; test: Induction of nuclear morphological changes in human HCT-116 cells assessed as horseshoe shaped nuclei formation measured after 48 hrs by DAPI-staining based fluorescence microscopic analysis; type: functional, cell-based
[27] = test system: HCT-116; test: Induction of morphological changes in human HCT-116 cells assessed as cell detachment at 3.32 to 13.28 uM measured after 48 hrs by phase contrast microscope; type: functional, cell-based; conditions: dose 3.32-13.28 µM
[28] = test system: HCT-116; test: Induction of ROS production in human HCT-116 cells at 3.32 uM incubated for 72 hrs by DCFDA staining based fluorescence microscopic analysis; type: functional, cell-based
[29] = test system: HCT-116; test: Induction of apoptosis in human HCT-116 cells assessed as viable cells at 3.32 uM incubated for 24 hrs by Annexin V-FITC/PI staining based flow cytometry analysis (Rvb= 99.7%); type: functional; conditions: read-out: Activity
[30] = test system: HCT-116; test: Induction of apoptosis in human HCT-116 cells assessed as early apoptotic cells at 6.64 uM incubated for 24 hrs by Annexin V-FITC/PI staining based flow cytometry analysis (Rvb= 0.2%); type: functional
[31] = target: Tubulin; test: Inhibition of tubulin polymerization (unknown origin) by absorbance based analysis; type: protein-complex assay, Homo sapiens
[32] = test system: HCT-116; test: Induction of apoptosis in human HCT-116 cells assessed as late apoptotic cells at 6.64 uM incubated for 24 hrs by Annexin V-FITC/PI staining based flow cytometry analysis (Rvb= 0.1%); type: functional
[33] = test system: Cell membrane; test: Induction of mitochondrial membrane potential loss in human HCT-116 cells assessed as depolarized cells at 3.32 uM incubated for 72 hrs by JC-1 staining based flow cytometry analysis (reference value: 0.4 %); type: subcellular
[34] = test system: HCT-116; test: Cell cycle arrest in human HCT-116 cells assessed as accumulation of cells in S phase at 13.28 uM measured after 48 hrs by PI staining based flow cytometry method (reference value: 8.8%); type: functional
[35] = test system: HCT-116; test: Induction of apoptosis in human HCT-116 cells assessed as early apoptotic cells at 13.28 uM incubated for 24 hrs by Annexin V-FITC/PI staining based flow cytometry analysis (Rvb= 0.2%); type: functional

For `CC(C)(C)S(=O)(=O)NCC1(Sc2nc3ccccc3[nH]2)C(=O)N(Cc2ccc(Br)cc2)c2ccccc21` (stereo not given), the Activity [1] was “Dose-Dependent Effect”, the IC50 [2] was 12.8 µM and the Activity [3] was “Dose-Dependent Effect”. The Activity [4] was 10.4%, the IC50 at 72 h [5] was 38.4 µM and the Activity [6] was 86.7%. The Activity [7] was “Active”, the Activity [8] was 13.3% and the Activity [9] was 11.8%. For the same compound, the Activity [10] was 41.8%, the inhibition [11] was “Active” and the Activity [12] was 11.1%. It also gave an IC50 [13] of 14.2 µM, an IC50 [14] of 19.2 µM and an Activity [15] of 41%. For the same compound, the Activity [16] was 94.1%, the Activity [17] was “Dose-Dependent Effect” and the Activity [18] was 13.3%. The Activity [19] was “Active”, the IC50 [20] was 6.64 µM and the Activity [21] was 27.4%. For the same compound, the inhibition [22] was “Active”, the Activity [23] was 2.9% and the Activity [24] was 53.4%. For the same compound, the viability at 6.64 µM [25] was 9.9%, the Activity [26] was “Dose-Dependent Effect” and the Activity [27] was “Active”. The Activity [28] was “Active”, the viability at 3.32 µM [29] was 4.5% and the Activity [30] was 21.4%. It also gave an IC50 [31] of 9.73 µM, an Activity [32] of 58.4% and an Activity [33] of 3%. For the same compound, the Activity [34] was 8.6% and the Activity [35] was 8.9%.
